Patent US20200316090A1, “TARGETED THERAPEUTICS” (MADRIGAL PHARMACEUTICALS, INC., priority 2012, published 2020)
Read-outs that look alike come from different tables or passages of the source. Blank lines part the entries; values can stand above or below the compound they belong to.

Experiments:
[1] = Artificial membrane permeability assay (PAMPA)
[2] = Tissue distribution of SDC-TRAP and degradation products in tumor-bearing mice (plasma, tumor, heart); type: in vivo, Female SCID Mouse (H1975)
[3] = Permeability (10^−6 cm/s), 5 h incubation, peak area used in place of concentration, first table
[4] = Permeability (cm/s), 5 h incubation, peak area used in place of concentration, first table
[5] = tissue distribution of SDC-TRAP-0056, 6 h
[6] = tissue distribution of SDC-TRAP-0056, 12 h
[7] = tissue distribution of SDC-TRAP-0056, 24 h
[8] = female, SCID, mouse, in vivo, read-out: Tumor/Plasma Ratio
[9] = female, SCID, mouse, in vivo, read-out: Plasma Conc.

SMILES: Cn1c(=O)c2c(ncn2C)n(C)c1=O [Caffeine]
- Mass Retention (%) ([1]; 5 h incubation, first table): 20.8%
- Papp at 5 h [1, 3]: 11.7 ×10⁻⁶ cm/s
- Papp at 5 h ([1]; Permeability (10^−6 cm/s), same protocol, second table): 14.3 ×10⁻⁶ cm/s
- Papp at 5 h [1, 4]: 11.7 ×10⁻⁶ cm/s
- Papp at 5 h ([1]; Permeability (cm/s), same protocol, second table): 14.3 ×10⁻⁶ cm/s
- Mass Retention (%) ([1]; same protocol, second table): −0.11%

- Mass Retention (%) ([1]; 5 h incubation, first table): 17.6%
- Papp at 5 h [1, 3]: 0.05 ×10⁻⁶ cm/s
- Papp at 5 h [1, 4]: 0.05 ×10⁻⁶ cm/s
SMILES: CC(=O)O[C@@]12CO[C@@H]1C[C@H](O)[C@@]1(C)C(=O)[C@H](O)C3=C(C)[C@@H](OC(=O)[C@H](O)[C@@H](NC(=O)OC(C)(C)C)c4ccccc4)C[C@@](O)([C@@H](OC(=O)c4ccccc4)[C@H]21)C3(C)C [Docetaxel, docetaxel, reference compound]

- Mass Retention (%) ([1]; 5 h incubation, first table): 21.0%
- Papp at 5 h [1, 3]: 0.0033 ×10⁻⁶ cm/s
- Papp at 5 h [1, 4]: 0.0033 ×10⁻⁶ cm/s
SMILES: COc1cccc2c1C(=O)c1c(O)c3c(c(O)c1C2=O)C[C@@](O)(C(=O)CO)C[C@@H]3O[C@H]1C[C@H](N)[C@H](O)[C@H](C)O1 [Doxorubicin, doxorubicin, reference compound]

- Mass Retention (%) ([1]; 5 h incubation, first table): 14.7%
- Papp at 5 h [1, 3]: 0.0268 ×10⁻⁶ cm/s
- Papp at 5 h [1, 4]: 0.0268 ×10⁻⁶ cm/s
SMILES: CC(C)c1cc(-c2nnc(O)n2-c2ccc3c(ccn3CCN(C)C(=O)CCCC(=O)Nc3cccc4c3CN(C3CCC(=O)NC3=O)C4=O)c2)c(O)cc1O (stereo not drawn) [SDC-TRAP-0018, N1-(2-(5-(3-(2,4-dihydroxy-5-isopropylphenyl)-5-hydroxy-4H-1,2,4-triazol-4-yl)-1H-indol-1-yl)ethyl)-N5-(2-(2,6-dioxopiperidin-3-yl)-1-oxoisoindolin-4-yl)-N1-methylglutaramide]

- Mass Retention (%) ([1]; 5 h incubation, first table): 10.8%
- Papp at 5 h [1, 3]: 0.0283 ×10⁻⁶ cm/s
- Papp at 5 h [1, 4]: 0.0283 ×10⁻⁶ cm/s
SMILES: CC(C)c1cc(-c2nnc(O)n2-c2ccc3c(ccn3CCOCCNC(=O)CCn3cc(F)c(=O)[nH]c3=O)c2)c(O)cc1O [SDC-TRAP-0048, N-(2-(2-(5-(3-(2,4-dihydroxy-5-isopropylphenyl)-5-hydroxy-4H-1,2,4-triazol-4-yl)-1H-indol-1-yl)ethoxy)ethyl)-3-(5-fluoro-2,4-dioxo-3,4-dihydropyrimidin-1 (2H)-yl)propanamide]

- Mass Retention (%) ([1]; 5 h incubation, first table): 14.1%
- Papp at 5 h [1, 3]: 0.0124 ×10⁻⁶ cm/s
- Papp at 5 h [1, 4]: 0.0124 ×10⁻⁶ cm/s
SMILES: CC(C)c1cc(-c2nnc(O)n2-c2ccc(CN3CCN(C(=O)CCn4cc(F)c(=O)[nH]c4=O)CC3)cc2)c(O)cc1O [SDC-TRAP-0049, 1-(3-(4-(4-(3-(2,4-dihydroxy-5-isopropylphenyl)-5-hydroxy-4H-1,2,4-triazol-4-yl)benzyl)piperazin-1-yl)-3-oxopropyl)-5-fluoropyrimidine-2,4 (1H,3H)-dione]

SMILES: CCc1c2c(nc3ccc(O)cc13)-c1cc3c(c(=O)n1C2)COC(=O)C3(CC)OC(=O)CN1CCN(c2ccc(-n3c(O)nnc3-c3cc(C(C)C)c(O)cc3O)cc2)CC1 (stereo not drawn) [SDC-TRAP-0056, 4,11-diethyl-9-hydroxy-3,14-dioxo-3,4,12,14-tetrahydro-1H-pyrano[3′,4′:6,7]indolizino[1,2-b]quinolin-4-yl 2-(4-(4-(3-(2,4-dihydroxy-5-isopropylphenyl)-5-hydroxy-4H-1,2,4-triazol-4-yl)phenyl)piperazin-1-yl)acetate]
- Kp ([2]; female, SCID, mouse, in vivo, tissue distribution of SDC-TRAP-0056, 6 h, read-out: Tumor/Plasma Ratio): 0.844
- Kp ([2]; female, SCID, mouse, in vivo, tissue distribution of SDC-TRAP-0056, 12 h, read-out: Tumor/Plasma Ratio): 40.3
- Kp ([2]; female, SCID, mouse, in vivo, tissue distribution of SDC-TRAP-0056, 24 h, read-out: Tumor/Plasma Ratio): 40.3
- Kp ([2]; female, SCID, mouse, in vivo, tissue distribution of SDC-TRAP-0056, […], read-out: Tumor/Plasma Ratio): 0.0193
- Plasma Conc. [2, 5]: 5.88 µM
- Tumor Conc. [2, 5]: 4.97 nmol/g of tissue
- Plasma Conc. [2, 6]: 0.0542 µM
- Tumor Conc. [2, 6]: 2.19 nmol/g of tissue
- Plasma Conc. [2, 7]: 0.0542 µM
- Tumor Conc. [2, 7]: 2.19 nmol/g of tissue
- Tumor Conc. ([2]; tissue distribution of SDC-TRAP-0056, 48 h): 0.188 nmol/g of tissue

SMILES: CCc1c2c(nc3ccc(O)cc13)-c1cc3c(c(=O)n1C2)COC(=O)[C@@]3(CC)OC(=O)N1CCC(CCn2ccc3cc(-n4c(O)nnc4-c4cc(C(C)C)c(O)cc4O)ccc32)CC1 [SDC-TRAP-0064, (S)-4,11-diethyl-9-hydroxy-3,14-dioxo-3,4,12,14-tetrahydro-1H-pyrano[3′,4′:6,7]indolizino[1,2-b]quinolin-4-yl 4-(2-(5-(3-(2,4-dihydroxy-5-isopropylphenyl)-5-hydroxy-4H-1,2,4-triazol-4-yl)-1H-indol-1-yl)ethyl)piperidine-1-carboxylate]
- Mass Retention (%) ([1]; same protocol, second table): 48.4%

SMILES: COc1ccc(-c2cnoc2-c2cc(OC)c(OC)c(OC)c2)cc1OC(=O)N1CCN(Cc2ccc(-n3c(O)nnc3-c3cc(C(C)C)c(O)cc3O)cc2)CC1 [SDC-TRAP-0098, 2-Methoxy-5-(5-(3,4,5-trimethoxyphenyl)isoxazol-4-yl)phenyl-4-(4-(3-(2,4-dihydroxy-5-isopropylphenyl)-5-hydroxy-4H-1,2,4-triazol-4-yl)benzyl) piperazine-1-carboxylate]
- Tumor Conc. ([2]; tissue distribution of SDC-TRAP-0098, 1 h): 0.250 nmol/g of tissue
- Tumor Conc. ([2]; tissue distribution of SDC-TRAP-0098, 6 h): 0.0122 nmol/g of tissue
- Tumor Conc. ([2]; tissue distribution of SDC-TRAP-0098, 24 h): BQL
- Tumor Conc. ([2]; tissue distribution of SDC-TRAP-0098, 48 h): BQL

SMILES: CC(C)c1cc(-c2nnc(O)n2-c2ccc(CN3CCN(C(=O)Oc4ccc(COC(=O)Nc5cccc6c5CN(C5CCC(=O)NC5=O)C6=O)cc4)CC3)c(F)c2)c(O)cc1O (stereo not drawn) [SDC-TRAP-0171, 4-((((2-(2,6-dioxopiperidin-3-yl)-1-oxoisoindolin-4-yl)carbamoyl)oxy)methyl)phenyl-4-(4-(3-(2,4-dihydroxy-5-isopropylphenyl)-5-hydroxy-4H-1,2,4-triazol-4-yl)-2-fluorobenzyl)piperazine-1-carboxylate]
- Kp at 6 h [2, 8]: 407

SMILES: CCNC(=O)c1nnc(-c2cc(C(C)C)c(O)cc2O)n1-c1ccc(C(=O)N2CCN(c3cc(C)c(OC(=O)Nc4cccc5c4CN(C4CCC(=O)NC4=O)C5=O)c(C)c3)CC2)cc1 (stereo not drawn) [SDC-TRAP-0178, 4-(4-(4-(3-(2,4-dihydroxy-5-isopropylphenyl)-5-(ethylcarbamoyl)-4H-1,2,4-triazol-4-yl)benzoyl)piperazin-1-yl)-2,6-dimethylphenyl (2-(2,6-dioxopiperidin-3-yl)-1-oxoisoindolin-4-yl)carbamate]
- concentration at 1 h [2, 9]: 217 µM
- concentration at 6 h [2, 9]: 4.51 µM
- concentration at 24 h [2, 9]: 28 nM
- concentration at 48 h [2, 9]: 241 nM
- Kp at 1 h [2, 8]: 1.59
- Kp at 6 h [2, 8]: 100
- Kp at 24 h [2, 8]: 100
- Kp at […] [2, 8]: 0.0179

- Mass Retention (%) ([1]; 5 h incubation, first table): 10.2%
- Papp at 5 h [1, 3]: 0.00859 ×10⁻⁶ cm/s
- Papp at 5 h [1, 4]: 0.00859 ×10⁻⁶ cm/s
SMILES: CCNC(=O)c1nnc(-c2cc(C(C)C)c(O)cc2O)n1-c1ccc(CN2CCC(C(=O)N[C@@H](CC(C)C)C(=O)Nc3cccc4c3CN(C3CCC(=O)NC3=O)C4=O)CC2)cc1 (stereo partly drawn) [SDC-TRAP-0193, 1-(4-(3-(2,4-dihydroxy-5-isopropylphenyl)-5-(ethylcarbamoyl)-4H-1,2,4-triazol-4-yl)benzyl)-N-((2S)-1-((2-(2,6-dioxopiperidin-3-yl)-1-oxoisoindolin-4-yl)amino)-4-methyl-1-oxopentan-2-yl)piperidine-4-carboxamide]

SMILES: CCNC(=O)c1nnc(-c2cc(C(C)C)c(O)cc2O)n1-c1ccc(CN2CCC(C(=O)N3CCN(c4cc(C)c(OC(=O)Nc5cccc6c5CN(C5CCC(=O)NC5=O)C6=O)c(C)c4)CC3)CC2)cc1 (stereo not drawn) [SDC-TRAP-0195, 4-(4-(1-(4-(3-(2,4-dihydroxy-5-isopropylphenyl)-5-(ethylcarbamoyl)-4H-1,2,4-triazol-4-yl)benzyl)piperidine-4-carbonyl)piperazin-1-yl)-2,6-dimethylphenyl (2-(2,6-dioxopiperidin-3-yl)-1-oxoisoindolin-4-yl)carbamate]
- Mass Retention (%) ([1]; 5 h incubation, first table): 27.1%

SMILES: CCNC(=O)c1nnc(-c2cc(C(C)C)c(O)cc2O)n1-c1ccc2c(c1)CN(Cc1cc(OC)c(OC(=O)Nc3cccc4c3CN(C3CCC(=O)NC3=O)C4=O)c(OC)c1)C2 (stereo not drawn) [SDC-TRAP-0196, 4-((5-(3-(2,4-dihydroxy-5-isopropylphenyl)-5-(ethylcarbamoyl)-4H-1,2,4-triazol-4-yl)isoindolin-2-yl)methyl)-2,6-dimethoxyphenyl (2-(2,6-dioxopiperidin-3-yl)-1-oxoisoindolin-4-yl)carbamate]
- Mass Retention (%) ([1]; 5 h incubation, first table): 22.3%
